For the assay, the target named is Cannabinoid receptor 1 (Homo sapiens, UniProt P21554). The class given is functional.

What is called IC50 is the concentration that gives 50% inhibition.

Cannabinoid receptor 1, sequence (P21554 whole entry): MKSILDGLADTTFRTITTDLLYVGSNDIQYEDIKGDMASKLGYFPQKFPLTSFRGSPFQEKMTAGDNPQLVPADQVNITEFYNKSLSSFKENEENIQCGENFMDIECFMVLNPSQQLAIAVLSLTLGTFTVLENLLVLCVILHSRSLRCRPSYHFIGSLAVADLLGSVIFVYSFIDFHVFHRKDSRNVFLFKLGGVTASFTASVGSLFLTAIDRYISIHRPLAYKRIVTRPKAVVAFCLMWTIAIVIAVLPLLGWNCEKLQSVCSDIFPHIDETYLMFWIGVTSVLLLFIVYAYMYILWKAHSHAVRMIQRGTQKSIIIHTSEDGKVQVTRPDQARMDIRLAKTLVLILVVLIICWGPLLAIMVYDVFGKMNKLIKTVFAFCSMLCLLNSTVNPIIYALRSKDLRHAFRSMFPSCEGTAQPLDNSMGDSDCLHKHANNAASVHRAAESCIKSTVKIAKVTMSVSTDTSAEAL

With `CC(=O)Nc1cc(=O)n(C)c2nc(-c3ccc(Cl)cc3Cl)c(-c3ccc(Cl)cc3)cc12`, the IC50 was 112 nM.

Turning to `CC(=O)Nc1c(C#N)c(=O)n(C)c2nc(-c3ccc(Cl)cc3Cl)c(-c3ccc(Cl)cc3)cc12`, the IC50 is 35.5 nM.

On to `CC(NC(=O)C(C)(C)Oc1cccc(Cl)c1)C(Cc1ccc(Cl)cc1)c1ccccc1` (stereo not drawn), for which the midpoint of inhibition, the IC50, lay at 1.51 nM. For `CC(C)NC(=O)N1CCN(C(c2ccc(Cl)cc2)c2ccccc2C(F)(F)F)CC1` (stereo not drawn), the IC50 is 6610 nM.

For `CC(NS(=O)(=O)Cc1ccccc1)C(Cc1ccc(Cl)cc1)c1cccc(C#N)c1` (stereo not drawn), the IC50 is 20.9 nM. As for `CC(NS(=O)(=O)C(C)(C)C)C(Cc1ccc(Cl)cc1)c1cccc(C#N)c1` (stereo not drawn), the figure is 1700 nM; as for `CC(NS(C)(=O)=O)C(Cc1ccc(Cl)cc1)c1cccc(C#N)c1` (stereo not drawn), 2040 nM; as for `CC(C)NC(=O)N1CCN(C(c2ccc(Cl)cc2)c2ccccc2Cl)CC1` (stereo not drawn), 398 nM.

With `Cc1ccccc1C(c1ccc(Cl)cc1)N1CCN(C(=O)NC(C)C)CC1` (stereo not drawn), the IC50 is 2190 nM. The result for `CC(NC(=O)C(C)(C)Oc1cc(F)cc(F)c1)C(Cc1ccc(Cl)cc1)c1ccccc1` (stereo not drawn) reads 1.12 nM. The compound `CC(C)NC(=O)N1CCN(C(c2ccc(Br)cc2)c2ccccc2Cl)CC1` (stereo not drawn) showed an IC50 of 776 nM. `O=C(NCC1CCC1)N1CCN(C(c2ccc(Cl)cc2)c2ccc(Cl)cc2)CC1` gave an IC50 of 3470 nM.

Take `CC(NC(=O)C(C)(C)Oc1ccc(Cl)cn1)C(Cc1ccc(Cl)cc1)c1ccccc1` (stereo not drawn): 1.32 nM corresponded to half-maximal inhibition (IC50).

Source of the values: ChEMBL document CHEMBL1136897, “Predictive models of Cannabinoid-1 receptor antagonists derived from diverse classes” (Bioorg Med Chem Lett, 2009).
